{
  "source": "the supplement of paper PMC11208160",
  "data": [
    {"experiment": "recombinant barcode read abundance after kanamycin selection (control-corrected) (log10(CPM+1)); higher = more efficient recombination; sequences stand for … in AGTGCAGAGAAAATCGGCCAGTTTTCTCTGCCTGCAGTCCGCATGCCGT…AGATTTATGCAGCGGACTGCCTTTCTCCCAAAGTGATAAACCGGACAGTATCATGGACCGGTTTTCCCGGTAATCCGTATTTGCAAGGTTGGTTTCACT; site = the 11-nt target", "outline": "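A vector carrying a T7-inducible recombinase and the last 73 bp of the bridge RNA received, by Gibson cloning, oligos encoding a promoter, target, barcode and the first 104 bridge RNA bases under J23119. The pooled constructs entered E. coli together with a donor plasmid by electroporation. Selection used chloramphenicol/ampicillin/kanamycin with 0.1 mM IPTG, with chloramphenicol/ampicillin LB agar as the control, each in two replicates. Recombination efficiency is the averaged, control-corrected counts-per-million of barcodes at recombinant junctions, reported as log10(CPM+1).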", "values": [
      {"sequence": "ATCAGTACTTGGGTTCTAACCTGTTGCCT (site ATCAGTACTAG)", "recombinant barcode read abundance (log10)": 0.307},
      {"sequence": "ATCAGTACTTGGGTTCTAACCTGTTGCCT (site CTGAGTACTAG)", "recombinant barcode read abundance (log10)": 0.242},
      {"sequence": "ATCCAGGCTTGGGTTCTAACCTGTTGCGG (site ATCCAGGCTCC)", "recombinant barcode read abundance (log10)": 2.07},
      {"sequence": "ATCCAGGCTTGGGTTCTAACCTGTTGCGG (site ATTCAGACTCC)", "recombinant barcode read abundance (log10)": 0.00907},
      {"sequence": "ATCGGAGCTTGGGTTCTAACCTGTTGCTG (site ATCGGAGCTCA)", "recombinant barcode read abundance (log10)": 0.991},
      {"sequence": "ATCGGAGCTTGGGTTCTAACCTGTTGCTG (site ATCGGAGCTCC)", "recombinant barcode read abundance (log10)": 0.67},
      {"sequence": "ATCGGAGCTTGGGTTCTAACCTGTTGCTG (site ATCGGAGCTCG)", "recombinant barcode read abundance (log10)": 0.455},
      {"sequence": "ATCGGAGCTTGGGTTCTAACCTGTTGCTG (site ATCGGAGCTCT)", "recombinant barcode read abundance (log10)": 0.627},
      {"sequence": "ATCGGATCTTGGGTTCTAACCTGTTGCCG (site ATCGGATCTCG)", "recombinant barcode read abundance (log10)": 0.782},
      {"sequence": "ATCGGATCTTGGGTTCTAACCTGTTGCCG (site CATAACCCTAT)", "recombinant barcode read abundance (log10)": 0.349},
      {"sequence": "ATCGGGCCTTGGGTTCTAACCTGTTGCCT (site ATCGGGCCTAG)", "recombinant barcode read abundance (log10)": 0.47},
      {"sequence": "ATCGGGCCTTGGGTTCTAACCTGTTGCCT (site CTCGGGCCTAG)", "recombinant barcode read abundance (log10)": 0.0724},
      {"sequence": "ATCGGGCCTTGGGTTCTAACCTGTTGCCT (site GTCGGGCCTAG)", "recombinant barcode read abundance (log10)": 0.582},
      {"sequence": "ATCGGGCCTTGGGTTCTAACCTGTTGCCT (site TTCGGGCCTAG)", "recombinant barcode read abundance (log10)": 0.0744},
      {"sequence": "ATCGTAGCTTGGGTTCTAACCTGTTGCCA (site ACCCTAGCTTG)", "recombinant barcode read abundance (log10)": 0.497},
      {"sequence": "ATCGTAGCTTGGGTTCTAACCTGTTGCCA (site ATCGTAGCTTG)", "recombinant barcode read abundance (log10)": 0.228},
      {"sequence": "ATCGTTCCTTGGGTTCTAACCTGTTGCGT (site ACCGGTCCTAC)", "recombinant barcode read abundance (log10)": 0.0508},
      {"sequence": "ATCGTTCCTTGGGTTCTAACCTGTTGCGT (site ATCGTTCCTAC)", "recombinant barcode read abundance (log10)": 0.411},
      {"sequence": "ATCTTACCTTGGGTTCTAACCTGTTGCCT (site ATCTTAACTAG)", "recombinant barcode read abundance (log10)": 0.069},
      {"sequence": "ATCTTACCTTGGGTTCTAACCTGTTGCCT (site ATCTTACCTAG)", "recombinant barcode read abundance (log10)": 0.681},
      {"sequence": "ATCTTACCTTGGGTTCTAACCTGTTGCCT (site ATCTTAGCTAG)", "recombinant barcode read abundance (log10)": 0.0332},
      {"sequence": "ATCTTACCTTGGGTTCTAACCTGTTGCCT (site ATCTTATCTAG)", "recombinant barcode read abundance (log10)": 0.109},
      {"sequence": "ATGAAGCCTTGGGTTCTAACCTGTTGCCT (site ATGAAGCCTAG)", "recombinant barcode read abundance (log10)": 1.87},
      {"sequence": "ATGAAGCCTTGGGTTCTAACCTGTTGCCT (site CTGAAGCCTAG)", "recombinant barcode read abundance (log10)": 0.053},
      {"sequence": "ATGAAGCCTTGGGTTCTAACCTGTTGCCT (site GTGAAGCCTAG)", "recombinant barcode read abundance (log10)": 0.177},
      {"sequence": "ATGAAGCCTTGGGTTCTAACCTGTTGCCT (site TTGAAGCCTAG)", "recombinant barcode read abundance (log10)": 0.503},
      {"sequence": "ATGAGCTCTTGGGTTCTAACCTGTTGCTA (site ATGAGCTCTTA)", "recombinant barcode read abundance (log10)": 1.12},
      {"sequence": "ATGAGCTCTTGGGTTCTAACCTGTTGCTA (site ATGAGGTCTGA)", "recombinant barcode read abundance (log10)": 0.0495},
      {"sequence": "ATGAGTCCTTGGGTTCTAACCTGTTGCAA (site ATGAGTCCTTT)", "recombinant barcode read abundance (log10)": 1.25},
      {"sequence": "ATGAGTCCTTGGGTTCTAACCTGTTGCAA (site TGAGAGACTAC)", "recombinant barcode read abundance (log10)": 0.0172},
      {"sequence": "ATGATACCTTGGGTTCTAACCTGTTGCCT (site AAGATACCTAG)", "recombinant barcode read abundance (log10)": 0.157},
      {"sequence": "ATGATACCTTGGGTTCTAACCTGTTGCCT (site ATGATACCTAG)", "recombinant barcode read abundance (log10)": 1.84},
      {"sequence": "ATGCAAACTTGGGTTCTAACCTGTTGCCT (site ATGCAAACTAG)", "recombinant barcode read abundance (log10)": 1.31},
      {"sequence": "ATGCAAACTTGGGTTCTAACCTGTTGCCT (site ATGCAACCTAG)", "recombinant barcode read abundance (log10)": 0.0759},
      {"sequence": "ATGCAAACTTGGGTTCTAACCTGTTGCCT (site ATGCAAGCTAG)", "recombinant barcode read abundance (log10)": 0.653},
      {"sequence": "ATGCAAACTTGGGTTCTAACCTGTTGCCT (site ATGCAATCTAG)", "recombinant barcode read abundance (log10)": 0.151},
      {"sequence": "ATGCACGCTTGGGTTCTAACCTGTTGCCT (site ATGCACGCTAG)", "recombinant barcode read abundance (log10)": 1.81},
      {"sequence": "ATGCACGCTTGGGTTCTAACCTGTTGCCT (site TATATGACTCC)", "recombinant barcode read abundance (log10)": 0.036},
      {"sequence": "ATGCCAACTTGGGTTCTAACCTGTTGCCT (site ATGCCAACTAG)", "recombinant barcode read abundance (log10)": 0.327},
      {"sequence": "ATGCCAACTTGGGTTCTAACCTGTTGCCT (site ATGCCCACTAG)", "recombinant barcode read abundance (log10)": 0.059},
      {"sequence": "ATGCCAACTTGGGTTCTAACCTGTTGCCT (site ATGCCGACTAG)", "recombinant barcode read abundance (log10)": 0.204},
      {"sequence": "ATGCCAACTTGGGTTCTAACCTGTTGCCT (site ATGCCTACTAG)", "recombinant barcode read abundance (log10)": 0.00977},
      {"sequence": "ATGCCCTCTTGGGTTCTAACCTGTTGCCT (site ATGACCTCTAG)", "recombinant barcode read abundance (log10)": 0.688},
      {"sequence": "ATGCCCTCTTGGGTTCTAACCTGTTGCCT (site ATGCCCTCTAG)", "recombinant barcode read abundance (log10)": 2.07},
      {"sequence": "ATGCCCTCTTGGGTTCTAACCTGTTGCCT (site ATGGCCTCTAG)", "recombinant barcode read abundance (log10)": 0.0962},
      {"sequence": "ATGCCCTCTTGGGTTCTAACCTGTTGCCT (site ATGTCCTCTAG)", "recombinant barcode read abundance (log10)": 0.0521},
      {"sequence": "ATGCCTACTTGGGTTCTAACCTGTTGCCT (site ATGCCAACTAG)", "recombinant barcode read abundance (log10)": 0.0174},
      {"sequence": "ATGCCTACTTGGGTTCTAACCTGTTGCCT (site ATGCCCACTAG)", "recombinant barcode read abundance (log10)": 0.0532},
      {"sequence": "ATGCCTACTTGGGTTCTAACCTGTTGCCT (site ATGCCGACTAG)", "recombinant barcode read abundance (log10)": 0.0715},
      {"sequence": "ATGCCTACTTGGGTTCTAACCTGTTGCCT (site ATGCCTACTAG)", "recombinant barcode read abundance (log10)": 0.337},
      {"sequence": "ATGCCTCCTTGGGTTCTAACCTGTTGCTT (site ATGCCTCCTAA)", "recombinant barcode read abundance (log10)": 0.165},
      {"sequence": "ATGCCTCCTTGGGTTCTAACCTGTTGCTT (site GAAGGAGCTCT)", "recombinant barcode read abundance (log10)": 0.07},
      {"sequence": "ATGCGTTCTTGGGTTCTAACCTGTTGCCT (site AGGTGTTCTAG)", "recombinant barcode read abundance (log10)": 0.203},
      {"sequence": "ATGCGTTCTTGGGTTCTAACCTGTTGCCT (site ATGCGTTCTAG)", "recombinant barcode read abundance (log10)": 1.73},
      {"sequence": "ATGCTTGCTTGGGTTCTAACCTGTTGCCA (site ATGCTTGCTTG)", "recombinant barcode read abundance (log10)": 0.187},
      {"sequence": "ATGCTTGCTTGGGTTCTAACCTGTTGCCA (site TGTGCAACTCA)", "recombinant barcode read abundance (log10)": 0.299},
      {"sequence": "ATGGATACTTGGGTTCTAACCTGTTGCCT (site ATGGATACTAG)", "recombinant barcode read abundance (log10)": 2.26},
      {"sequence": "ATGGATACTTGGGTTCTAACCTGTTGCCT (site ATGTACACTAG)", "recombinant barcode read abundance (log10)": 0.22},
      {"sequence": "ATGGATCCTTGGGTTCTAACCTGTTGCGT (site AGGGATCCTAC)", "recombinant barcode read abundance (log10)": 0.758},
      {"sequence": "ATGGATCCTTGGGTTCTAACCTGTTGCGT (site ATGGATCCTAC)", "recombinant barcode read abundance (log10)": 2.77},
      {"sequence": "ATGGCCTCTTGGGTTCTAACCTGTTGCCT (site ATGACCTCTAG)", "recombinant barcode read abundance (log10)": 0.822},
      {"sequence": "ATGGCCTCTTGGGTTCTAACCTGTTGCCT (site ATGCCCTCTAG)", "recombinant barcode read abundance (log10)": 0.0852},
      {"sequence": "ATGGCCTCTTGGGTTCTAACCTGTTGCCT (site ATGGCCTCTAG)", "recombinant barcode read abundance (log10)": 2.2},
      {"sequence": "ATGGCCTCTTGGGTTCTAACCTGTTGCCT (site ATGTCCTCTAG)", "recombinant barcode read abundance (log10)": 0.0804},
      {"sequence": "ATGGGCCCTTGGGTTCTAACCTGTTGCTA (site ATGGGCCCTAA)", "recombinant barcode read abundance (log10)": 0.362},
      {"sequence": "ATGGGCCCTTGGGTTCTAACCTGTTGCTA (site ATGGGCCCTCA)", "recombinant barcode read abundance (log10)": 1.17},
      {"sequence": "ATGGGCCCTTGGGTTCTAACCTGTTGCTA (site ATGGGCCCTGA)", "recombinant barcode read abundance (log10)": 0.288},
      {"sequence": "ATGGGCCCTTGGGTTCTAACCTGTTGCTA (site ATGGGCCCTTA)", "recombinant barcode read abundance (log10)": 2.17},
      {"sequence": "ATGGGCCCTTGGGTTCTAACCTGTTGCTT (site ATGGGCCCTAA)", "recombinant barcode read abundance (log10)": 2.01},
      {"sequence": "ATGGGCCCTTGGGTTCTAACCTGTTGCTT (site ATGGGCCCTCA)", "recombinant barcode read abundance (log10)": 0.00714},
      {"sequence": "ATGGGCCCTTGGGTTCTAACCTGTTGCTT (site ATGGGCCCTGA)", "recombinant barcode read abundance (log10)": 0.0928},
      {"sequence": "ATGGGCCCTTGGGTTCTAACCTGTTGCTT (site ATGGGCCCTTA)", "recombinant barcode read abundance (log10)": 0.243},
      {"sequence": "ATGGTACCTTGGGTTCTAACCTGTTGCTA (site ATGGTACCTTA)", "recombinant barcode read abundance (log10)": 2.34},
      {"sequence": "ATGGTACCTTGGGTTCTAACCTGTTGCTA (site GATAACGCTAG)", "recombinant barcode read abundance (log10)": 0.247},
      {"sequence": "ATGGTGACTTGGGTTCTAACCTGTTGCCT (site ATGGTGACTAG)", "recombinant barcode read abundance (log10)": 1.21},
      {"sequence": "ATGGTGACTTGGGTTCTAACCTGTTGCCT (site ATGGTGCCTAG)", "recombinant barcode read abundance (log10)": 0.296},
      {"sequence": "ATGGTGACTTGGGTTCTAACCTGTTGCCT (site ATGGTGGCTAG)", "recombinant barcode read abundance (log10)": 0.0522}
    ]}
  ]
}
